# Test results taken from patent US8921321B2, “Therapeutic strategies for prevention and treatment of alzheimer's disease” (Isis Innovation Ltd., priority 2001, dated 2014).
# Legend:
# [1] = tested on: SH-SY5Y human neuroblastoma cells; test: Relative lengthening of the G1 phase of the cell cycle by flow cytometry; format: cell-based; conditions: drug alone, FIG. 3a
# Experimental: (§1) SH-SY5Y cells were treated with three candidate agents: rapamycin (Rapa) at 100 ng/ml, doxorubicin (Doxo) at 1 μM and Dexrazoxane (DexRaz) at 200 μM and then tested one day (d1) and two days (d2) after treatment for the following 7 parameters, which are indicative of cell cycle defects and “AD-type” pathology:
# (§2) In order to evaluate the effect of drug pre-treatment is protecting against the effects of oxidative stress cells were subjected to oxidative stress (by treatment with 120 μM H2O2) in the absence of drug treatment and after treatment with rapamycin or dexrazoxane, and then tested for the same parameters. Results are shown in FIGS. 1-7, panel b (FIG. 1b, FIG. 2b, FIG. 3b, FIG. 4b, FIG. 5b, FIG. 6b, FIG. 7b).
# Finally, cells were treated with doxorubicin after treatment with rapamycin or dexrazoxane and then tested for the same parameters, to evaluate the effects of combined treatment. Results are shown in FIGS. 1-7, panel c (FIG. 1c, FIG. 2c, FIG. 3c, FIG. 4c, FIG. 5c, FIG. 6c, FIG. 7c). […]
# The cultures prepared for flow cytometry were harvested after a short incubation with Trypsin EDTA (Sigma) in PBS. […] On flow cytometry the ratio of G1 and G2 cells was measured. […]
# [2] = tested on: SH-SY5Y human neuroblastoma cells; test: Apoptosis by flow cytometry (sub-G1 DNA content); format: cell-based; conditions: drug alone: rapamycin 100 ng/ml, doxorubicin 1 μM, dexrazoxane 200 μM, FIG. 2a
# Experimental: as §1, §2
# (§3) Finally, cells were treated with doxorubicin after treatment with rapamycin or dexrazoxane and then tested for the same parameters, to evaluate the effects of combined treatment. Results are shown in FIGS. 1-7, panel c (FIG. 1c, FIG. 2c, FIG. 3c, FIG. 4c, FIG. 5c, FIG. 6c, FIG. 7c).
# (§4) SH-SY5Y human neuroblastoma cells were cultured in Dulbecco's modified Eagle's medium (DMEM)/F12 supplemented with 10% fetal calf serum (FCS, PAA Laboratories, Austria), 2 mM L-glutamine, 100 IU/ml penicillin and 100 μg/ml streptomycin (Gibco) in a humidified incubator at 37° C. and 5% CO2.
# (§5) After 24 h incubation the culture medium was replaced by DMEM/F12 with 10% FCS containing various concentrations of drug. The cells were incubated for another 24 or 48 hours.
# (§6) The cell cultures were repeated in identical conditions in order to analyze cell cycle kinetics by flow cytometry and to study protein expression.
# (§7) The cultures prepared for flow cytometry were harvested after a short incubation with Trypsin EDTA (Sigma) in PBS. Cells were fixed in 70% ice-cold alcohol. Prior to staining with propidium iodide (PI) the samples were washed twice in PBS containing Triton-X at 0.1%. On flow cytometry the ratio of G1 and G2 cells was measured. Cells with sub-G1 DNA content were regarded as the apoptotic fraction.
# AD-related proteins = test: ELISA of AD-related proteins overall (APP, phospho tau, PHF tau) in SH-SY5Y cell lysates; format: cell-based, human
# Experimental: as §1, §2, §3, §4, §5, §6
# The cultures prepared for protein expression assays were harvested after a short wash with cold PBS by scraping. The collected cells were lysed in 150 μl of lysis buffer containing 50 mM Tris-HCl (pH 7.4), 100 mM NaCl, 1 mM EDTA, 0.5% (v/v) Nonidet P-40, 50 mM NaF, 0.2 mM Na3VO4, 20 μg/ml phenylmethylsulfonyl fluoride, and 5 μg/ml leupeptin, and incubated on ice for 30 min. […] Protein concentration was determined by the Bradford assay. […]
# [3] = tested on: AD-type paired helical filament (PHF) tau protein; test: ELISA of AD-type PHF tau (Tau2) in SH-SY5Y cell lysates; format: cell-based, human; conditions: for Expression of AD-type PHF tau: drug alone, FIG. 7a
# Experimental: as §1, §2, §3, §4, §5, §6
# (§8) The cultures prepared for protein expression assays were harvested after a short wash with cold PBS by scraping. The collected cells were lysed in 150 μl of lysis buffer containing 50 mM Tris-HCl (pH 7.4), 100 mM NaCl, 1 mM EDTA, 0.5% (v/v) Nonidet P-40, 50 mM NaF, 0.2 mM Na3VO4, 20 μg/ml phenylmethylsulfonyl fluoride, and 5 μg/ml leupeptin, and incubated on ice for 30 min. The cell lysate was centrifuged at 14,000 g for 20 min at 4° C. to remove insoluble pellets. Protein concentration was determined by the Bradford assay. ELISA assays were performed using a panel of antibodies. Secondary antibodies (anti rabbit or anti mouse as appropriate) conjugated to horseradish peroxidase were used.
# [4] = tested on: AD-type hyperphosphorylated tau protein; test: ELISA of AD-type hyperphosphorylated tau (AT8) in SH-SY5Y cell lysates; format: cell-based, human; conditions: for Expression of AD-type hyperphosphorylated tau: drug alone, FIG. 6a
# Experimental: as §1, §2, §3, §4, §5, §6, §8
# [5] = tested on: SH-SY5Y human neuroblastoma cells; test: Relative lengthening of the G2 phase of the cell cycle by flow cytometry; format: cell-based
# Experimental: as §1, §2, §3, §4, §5, §6, §7
# [6] = tested on: amyloid precursor protein (APP); test: ELISA of APP expression in SH-SY5Y cell lysates; format: cell-based, human; conditions: for Expression of APP: drug alone, FIG. 5a
# Experimental: as §1, §2, §3, §4, §5, §6, §8
# [7] = tested on: SH-SY5Y human neuroblastoma cells; test: MTT proliferation and cell survival assay; format: cell-based; conditions: drug alone: rapamycin 100 ng/ml, doxorubicin 1 μM, dexrazoxane 200 μM; vs control cultures; FIG. 1a
# Experimental: as §1, §2
# Finally, cells were treated with doxorubicin after treatment with rapamycin or dexrazoxane and then tested for the same parameters, to evaluate the effects of combined treatment. […]
# Cell survival and proliferation was assessed by MTT proliferation and cell survival assay, performed according to the manufacturers recommendations (Chemicon International, Ltd., Hampshire, UK) in the final 4 hours of the 24 hours period. The results of the assay were evaluated using an Opsys MR ELISA plate reader (Dynex Technologies, Middlesex, UK) at 570 nm with a reference wavelength of 630 nm.
# [8] = drug alone, after 1 day (day 2), FIG. 4a
structure (smiles),measurement,setting,value
"C[C@@H](CN1CC(=O)NC(=O)C1)N1CC(=O)NC(=O)C1 [dexrazoxane, Dexrazoxane]",Length of the G1 phase of the cell cycle,[1],acceleration of the G1 phase of the cell cycle
same,Apoptosis,[2],did not seem to protect cells against apoptotic cell death as efficiently as rapamycin did
same,Apoptosis,[2]; listed as Dexrazoxane,did not confer protection against cell death on its own
same,AD-related protein expression (overall),AD-related proteins; drug alone,effectively reduced AD-related protein expression after two days in culture
same,AD-related protein expression (overall),"AD-related proteins; drug pre-treatment followed by doxorubicin, summary statement",protective effects against AD-related protein expression became more robust
same,Expression of AD-type PHF tau,[3]; day two,by day two all three proteins were reduced in the cell lysates
same,Expression of AD-type PHF tau,[3]; first day,increased the expression of all three AD-related proteins on the first day
same,PHF tau formation,"[3]; drug pre-treatment followed by doxorubicin, FIG. 7c",reduction of the APP and PHF-tau production
same,Expression of AD-type hyperphosphorylated tau,[4]; day two,by day two all three proteins were reduced in the cell lysates
same,Expression of AD-type hyperphosphorylated tau,[4]; first day,increased the expression of all three AD-related proteins on the first day
same,Phospho-tau production,"[4]; drug pre-treatment followed by doxorubicin, FIG. 6c",did not significantly effect the phospho-tau production
same,Length of the G2 phase of the cell cycle,[5]; [8],massive G2 lengthening on day 2
same,Length of the G2 phase of the cell cycle,"[5]; drug alone, day one, FIG. 4a",little change in G2 time on day one
same,Length of the G2 phase of the cell cycle,"[5]; drug pre-treatment followed by doxorubicin, FIG. 4c",increased the G2 lengthening effect of doxorubicin
same,Expression of APP,[6]; day two,by day two all three proteins were reduced in the cell lysates
same,Expression of APP,[6]; first day,increased the expression of all three AD-related proteins on the first day
same,APP production,"[6]; drug pre-treatment followed by doxorubicin, FIG. 5c",reduction of the APP and PHF-tau production
same,Cell survival and proliferation (cell numbers),[7],reduced cell numbers only after 2 days of treatment
COc1cccc2c1C(=O)c1c(O)c3c(c(O)c1C2=O)C[C@@](O)(C(=O)CO)C[C@@H]3O[C@H]1C[C@H](N)[C@H](O)[C@H](C)O1 [doxorubicin],Length of the G1 phase of the cell cycle,[1]; after 1 day (day 2),effect on G1 was reversed after 1 day
same,Apoptosis,[2],seems to be protective against apoptotic cell death
same,Apoptosis,[2]; listed as Doxorubicin,appeared to be protective against apoptosis
same,AD-related protein expression (overall),AD-related proteins; drug alone,elevation of AD-related protein expression
same,Expression of AD-type PHF tau,[3],elevated expression
same,Expression of AD-type hyperphosphorylated tau,[4],reduction of phospho-tau
same,Length of the G2 phase of the cell cycle,"[5]; drug alone, FIG. 4a",lengthening of the G2 phase
same,Length of the G2 phase of the cell cycle,"[5]; drug alone, FIG. 4a, listed as Doxorubicin",lengthening of the G2 phase of the cell cycle
same,Length of the G2 phase of the cell cycle,[5]; [8],G2 inhibitory effect diminished
same,Expression of APP,[6],elevated expression of APP
same,Cell survival and proliferation (cell numbers),[7],reduced cell numbers
